# In patent US6514692B2, “Method for treatment of immunodeficiency virus infection” (priority 1996, dated 2003):
# Where “and” joins values, the source holds several entries; their conditions need not be identical. Identical values can stand only once. Where no end group is shown, it is not given here.
# Tests used:
# ME180 cells = experiment: toxicity (XTT) in transmission inhibition assay; details: for TOXICITY VALUES (XTT), single samples: samples 1-3
# Description: (§1) ME180 cells, a cervical epithelial cell line, were obtained from the American Type Culture Collection. These cells were thawed from liquid nitrogen and grown in RPMI 1640 medium supplemented with 10t fetal bovine serum, glutamine and antibiotics. The cells were adherent and were trypsinized (0.5% trypsin in HBSS) to remove them from the flask for passaging and use in assays. For use in the microtiter transmission inhibition assay, ME180 cells were trypsinized, washed and seeded in 96-well flat bottom microtiter plates (COSTAR) at a density of 5×10^3 cells per well. The cells were incubated at 37° C. for 24 hours prior to the tart of the assay. H9 cells chronically infected with he SK1 isolate of HIV-1 were treated with 200 μg/ml mitomycin C for 60 minutes at 37° C. After treatment the cells were washed three times with tissue culture medium. The chronically infected lymphocytes were added to each well at a density of 2×10^4 cells per well. The concentration of mitomycin C used in the treatment of the lymphocytes was chosen to allow lymphocyte survival for the period of time required to transmit virus to the uninfected ME180 cells, but to die prior to the time of assay so as not to contribute to the p24 signal used as the endpoint (see below). In the transmission assay the lytic peptides D4E1 and D2A21, with and without 150 μg/ml pig mucin, were added prior to the addition of chronically infected cells or were mixed with the chronically infected cells prior to their addition to the monolayer of ME180 cells. Mucin was included because it is an abundant constituent of the normal vaginal secretions of a human being, thus any chemotherapeutic agent targeting HIV should be active in its presence if it is to have clinical value. […] The lymphocytes and peptide were co-cultured with the ME180 cells for 6 hours and then removed by washing the ME180 monolayer four times with PBS. The plate was then incubated at 37° C. for six days. Medium was removed and changed every 48 hours during the incubation stage. No further peptide was added after the initial dose. At six days post-co-cultivation, the supernatant was removed from the wells and evaluated for the quantity of p24 antigen by ELISA. The ELISA was performed according to the manufacturer's recommendations. The amount of virus production in wells treated with various concentrations of the peptides was evaluated with appropriate cell and virus controls. Data are reported as a percent of virus control at each drug concentration. Linear regression analysis was used to calculate the […] and IC95 concentrations of the transmission inhibitor. […] TI represents the toxicity index, which is the ratio of the TC50/IC50, and is an indication of the relative concentrations window that exists between efficacy and toxicity.
# in vitro = details: human, ME180 cells
# Description: as §1
# [1] = 0.32 μg/ml, with 150 μg/ml pig mucin
# [2] = 1 μg/ml, with 150 μg/ml pig mucin
# [3] = 3.2 μg/ml, with 150 μg/ml pig mucin
# [4] = 10 μg/ml, with 150 μg/ml pig mucin
# [5] = 32 μg/ml, with 150 μg/ml pig mucin
# [6] = 100 μg/ml, with 150 μg/ml pig mucin
sequence,measurement,setting,value
FKLRAKIKVRLRAKIKL [D4E1],"TOXICITY VALUES (XTT), MEAN","ME180 cells; 0.32 μg/ml, no mucin",0.521 O.D. @ 450/650 nm
same,"TOXICITY VALUES (XTT), single samples","ME180 cells; 0.32 μg/ml, no mucin",0.518 O.D. @ 450/650 nm and 0.528 O.D. @ 450/650 nm and 0.516 O.D. @ 450/650 nm
same,"TOXICITY VALUES (XTT), MEAN",ME180 cells; [1],0.521 O.D. @ 450/650 nm
same,"TOXICITY VALUES (XTT), single samples",ME180 cells; [1],0.518 O.D. @ 450/650 nm and 0.528 O.D. @ 450/650 nm
same,"TOXICITY VALUES (XTT), MEAN","ME180 cells; 1 μg/ml, no mucin",0.523 O.D. @ 450/650 nm
same,"TOXICITY VALUES (XTT), single samples","ME180 cells; 1 μg/ml, no mucin",0.535 O.D. @ 450/650 nm and 0.523 O.D. @ 450/650 nm and 0.511 O.D. @ 450/650 nm
same,"TOXICITY VALUES (XTT), MEAN",ME180 cells; [2],0.523 O.D. @ 450/650 nm
same,"TOXICITY VALUES (XTT), single samples",ME180 cells; [2],0.535 O.D. @ 450/650 nm and 0.523 O.D. @ 450/650 nm and 0.511 O.D. @ 450/650 nm
same,"TOXICITY VALUES (XTT), MEAN","ME180 cells; 3.2 μg/ml, no mucin",0.503 O.D. @ 450/650 nm
same,"TOXICITY VALUES (XTT), single samples","ME180 cells; 3.2 μg/ml, no mucin",0.486 O.D. @ 450/650 nm and 0.513 O.D. @ 450/650 nm
same,"TOXICITY VALUES (XTT), MEAN",ME180 cells; [3],0.503 O.D. @ 450/650 nm
same,"TOXICITY VALUES (XTT), single samples",ME180 cells; [3],0.486 O.D. @ 450/650 nm and 0.513 O.D. @ 450/650 nm
same,"TOXICITY VALUES (XTT), MEAN","ME180 cells; 10 μg/ml, no mucin",0.515 O.D. @ 450/650 nm
same,"TOXICITY VALUES (XTT), single samples","ME180 cells; 10 μg/ml, no mucin",0.493 O.D. @ 450/650 nm and 0.526 O.D. @ 450/650 nm and 0.524 O.D. @ 450/650 nm
same,"TOXICITY VALUES (XTT), MEAN",ME180 cells; [4],0.515 O.D. @ 450/650 nm
same,"TOXICITY VALUES (XTT), single samples",ME180 cells; [4],0.493 O.D. @ 450/650 nm and 0.526 O.D. @ 450/650 nm and 0.524 O.D. @ 450/650 nm
same,"TOXICITY VALUES (XTT), MEAN","ME180 cells; 32 μg/ml, no mucin",0.529 O.D. @ 450/650 nm
same,"TOXICITY VALUES (XTT), single samples","ME180 cells; 32 μg/ml, no mucin",0.551 O.D. @ 450/650 nm and 0.513 O.D. @ 450/650 nm and 0.524 O.D. @ 450/650 nm
same,"TOXICITY VALUES (XTT), MEAN",ME180 cells; [5],0.529 O.D. @ 450/650 nm
same,"TOXICITY VALUES (XTT), single samples",ME180 cells; [5],0.551 O.D. @ 450/650 nm and 0.513 O.D. @ 450/650 nm and 0.524 O.D. @ 450/650 nm
same,"TOXICITY VALUES (XTT), MEAN","ME180 cells; 100 μg/ml, no mucin",0.143 O.D. @ 450/650 nm
same,"TOXICITY VALUES (XTT), single samples","ME180 cells; 100 μg/ml, no mucin",0.138 O.D. @ 450/650 nm and 0.162 O.D. @ 450/650 nm and 0.128 O.D. @ 450/650 nm
same,"TOXICITY VALUES (XTT), MEAN",ME180 cells; [6],0.143 O.D. @ 450/650 nm
same,"TOXICITY VALUES (XTT), single samples",ME180 cells; [6],0.138 O.D. @ 450/650 nm and 0.162 O.D. @ 450/650 nm and 0.128 O.D. @ 450/650 nm
same,"viability at 6 h, 0.32 µg/mL",in vitro,98.6%
same,"viability at 6 h, 1 µg/mL",in vitro,99.2%
same,"viability at 6 h, 3.2 µg/mL",in vitro,95.4%
same,"viability at 6 h, 10 µg/mL",in vitro,97.7%
same,"viability at 6 h, 32 µg/mL",in vitro,100%
same,"viability at 6 h, 100 µg/mL",in vitro,27.1%
